Source: patent publication US9914755B2, “Cyclosporin derivatives wherein the MeBmt sidechain has been cyclized” (Allergan, Inc., priority 2015, dated 2018)
≈ marks a conversion by molar mass, not a printed value. Starred links: 1 amine or outer side, 2 acyl side, 3 side chain; linkers in the order of their positions; H or OH if unused. Non-standard residues stand in square brackets, D forms with d. Residues, ends and D or L forms follow the SMILES beside them. X1 = C[C@@H]1CCO[C@H]1[C@H](C(=O)[*:2])N(C)[*:1]; d(aThr) = C[C@@H](O)[C@@H](N)C(=O)O; NMeL = CN[C@@H](CC(C)C)C(=O)O; dNMeL = CN[C@H](CC(C)C)C(=O)O; dNMeV = CN[C@@H](C(=O)O)C(C)C; dNMeA = CN[C@H](C)C(=O)O

Experiments:
[1] = target: T1, Human recombinant cyclophilin A (CypA) (Homo sapiens, UniProt P62937); test: Protease-free PPIase assay, cyclophilin A; format: biochemical; conditions: human recombinant CypA, 10 °C, SUC-AAPF-pNA substrate; read-out: CypA Protease-free PPIase Assay Ki
T1 construct: purchased Sigma C3805
Method: (§1) Protease-Free PPIase Assay The protease-free PPIase assay measures the rate of cis to trans conversion of a peptide substrate catalyzed by the enzyme cyclophilin A or D. Addition of a cyclophilin inhibitor (e.g., a test compound) slows the catalyzed rate and a Ki value is obtained. 35 mM HEPES pH 7.8, filtered through a 0.2 μm filter. 50 μM DTT was added prior to use each day and then the buffer was stored on ice. […] Human recombinant 6-His tagged cyclophilin D (CypD), prepared by the University of Edinburgh, was used to generate CypD inhibition data. Succinimide-[…]-nitroanilide (SUC-AAPF-pNA) (from Bachem AG, L-1400), 20 mg/ml prepared in 0.5 M LiCl in trifluoroethanol. All readings were taken with an Agilent 8453 Spectrophotometer which consisted of a cuvette holder, stirrer and chiller to maintain a stirred cuvette temperature of 10.0±0.1° C. The temperature was monitored by the use of temperature probe. […] The inhibitor was diluted in 100% DMSO, and then added to the assay to a maximum final concentration of 0.5% DMSO in the assay. […] The absorbance was measured at 330 nm for 300 s or 500 s for blank runs (NOTE: the substrate was added in one quick injection and the measurements started immediately to minimize mixing errors). A first order rate equation was fitted to the absorbance data, for each concentration of inhibitor, to obtain the rate constant (the first 10 to 15 seconds were excluded, as mixing causes errors in this portion of the curve). The catalytic rate was calculated from the enzymatic rate constant minus the background rate constant. An exponential curve was generated using the catalytic rate constants versus the inhibitor concentration to obtain the Ki value for the inhibitor. The Ki value is indicative of the binding affinity between the test compound and cyclophilin A.

[2] = target: T2, Human recombinant 6-His tagged cyclophilin D (CypD) (Homo sapiens, UniProt P30405); test: Protease-free PPIase assay, cyclophilin D; format: biochemical; conditions: human recombinant 6-His CypD, 10 °C, SUC-AAPF-pNA substrate; read-out: CypD Protease-free PPIase Assay Ki
T2 construct: 6-His
Method: as §1

calcineurin = target: T3, calcineurin (Homo sapiens, UniProt P62937+P63098+Q08209); test: Calcineurin Phosphatase (CaN) Assay; format: biochemical; conditions: in the presence of CypA, 1:1 complex of inhibitor with CypA
T3 construct: purchased Enzo Life Sciences BML-AK804
Excerpt: Calcineurin Phosphatase (CaN) Assay
The calcineurin phosphatase assay is a means for estimating the immunosuppressive potential of a test compound. Calcineurin is a serine-threonine protein phosphatase that on activation dephosphorylates members of the nuclear factor of activated T cells (NFAT), which are important in T lymphocyte activation.
To investigate the immunosuppressive potential of exemplary compounds of Formula I, which are cyclosporin analogs, their ability to inhibit calcineurin activity was measured in the presence and absence of CypA.
The CaN assay kit used is based on a colorimetric assay for measuring calcineurin phosphatase activity, and it is commercially available (Enzo Life Sciences and Calbiochem). Calmodulin is also required for calcineurin activity, and RII phosphopeptide is used as an efficient peptide substrate for calcineurin. […] The detection of free phosphate released is based on the classic Malachite green assay.
Enzo Life Sciences CaN Assay Kit: BML-AK804
For samples ‘without CypA’, a 4-point dilution series of the inhibitor was prepared in duplicate to obtain a final assay concentration of 10, 1, 0.1 and 0.01 μM. For samples ‘with CypA’, a 7-point dilution series was prepared to obtain a 1:1 complex of the inhibitor with CypA; the inhibitor and CypA final assay concentrations of 10, 3.33, 1.11, 0.37, 0.12, 0.04, 0.014 μM were prepared.
using the half area 96 well plates supplied with the kit, 10 μl UPW was added to duplicate wells to provide the non-inhibited control. 10 μl of the inhibitor or the inhibitor/CypA complex was added to the appropriate sample wells. 25 μl of the 2× assay buffer with calmodulin (CaM) was added to all wells, then 5 μl of calcineurin phosphatase (CaN) was added to all wells (40 U per well final concentration) except duplicate ‘no calcineurin blank’ wells to which 5 μL 1× assay buffer was added. The assay plate was placed in an oven at 30° C. for 15 minutes to equilibrate to the reaction temperature. The reaction was started by the addition of 10 μl RII-peptide (0.15 mM final concentration). The reaction was allowed to proceed at 30° C. for a time period in which the reaction is linear for about 60 minutes. The reaction was then terminated by adding 100 μl of the Malachite Green reagent. The color was allowed to develop for 15-30 minutes at room temperature before the absorbance at 620 nm was measured using a plate reader (Molecular Devices—SpectraMax M5). The data were analyzed by subtracting ‘no calcineurin blank’ from all the absorbance readings and plotting the background corrected absorbances against Log10 inhibitor concentration. A sigmoidal-dose response curve was fitted to the data using GraphPad Prism Software.
It exerts its immunosuppressive activity by binding to CypA to form a complex, which then binds to calcineurin and thereby inhibits calcineurin activity.

physchem = conditions: 25 °C, pH 7.4, aqueous buffer, kinetic from dmso stock
Method: The aqueous solubility of a compound of Formula I in buffer (pH 7.8) was measured by recording the onset of precipitation of the compound as a function of increasing concentration. The onset of precipitation, if it occurred, was detected by an increase in absorbance at 650 nm.
Stock solutions of Control and Test Compounds: 10 mM in 100% DMSO.
10 mM stock solutions of control and test compounds were prepared in 100% DMSO.
Assay buffer (247.5 μl) was placed into a flat bottomed transparent 96-well plate. For blank samples, DMSO (2.5 μl) was added. For test and control samples, 2.5 μl of the appropriate DMSO dilution stocks were added to the appropriate well. All test and control compounds were performed in triplicate.
The plates were sealed with adhesive plate seal and shaken at 250 rpm at 25° C. for 18 h on a plate shaker. After incubation, the plate seals were taken off and any bubbles observed in wells removed. The plates were read on a SpectraMaxM5 with a 5 s pre-shake at 650 nm.
Data files were transferred to the appropriate worksheet and the solubility range of the compounds was calculated from the data.

T1 sequence (P62937 whole entry): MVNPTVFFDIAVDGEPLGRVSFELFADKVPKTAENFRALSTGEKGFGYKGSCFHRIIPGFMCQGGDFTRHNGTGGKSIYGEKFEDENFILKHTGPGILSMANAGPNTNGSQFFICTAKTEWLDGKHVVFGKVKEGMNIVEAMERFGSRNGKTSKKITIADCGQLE
T2 sequence (P30405 30-207): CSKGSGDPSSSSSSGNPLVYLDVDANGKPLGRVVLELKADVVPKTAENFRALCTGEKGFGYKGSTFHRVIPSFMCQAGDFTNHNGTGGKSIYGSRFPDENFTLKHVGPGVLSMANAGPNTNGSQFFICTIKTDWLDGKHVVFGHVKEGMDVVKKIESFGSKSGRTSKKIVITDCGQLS

Row | Ki [1] [nM] | Ki [2] [nM] | IC50 (calcineurin) [nM] | solubility at 18 h (physchem) [µM] | Compound
1 | 81 | 9.7 | > 10000 | 75 (≈ 90.2 µg/mL) | CC[C@@H]1C(=O)N(C)[C@@H](CC(C)C)C(=O)N[C@H](C(C)C)C(=O)N(C)[C@H](CC(C)C)C(=O)N[C@H](C)C(=O)N[C@@H](C)C(=O)N(C)[C@H](CC(C)C)C(=O)N(C)[C@H](CC(C)C)C(=O)N(C)[C@H](C(C)C)C(=O)N(C)[C@H]([C@@H]2OCC[C@H]2C)C(=O)N[C@H](CC)C(=O)N1C [Compound 1, [(2S)-2-(methylamino)-2-[(2R,3R)-3-methyltetrahydrofuran-2-yl]acetic acid]^1 [(R)-ethyl-Sar]^3 cyclosporin A]
2 | 237 | 39 | > 10000 | 50 (≈ 60.8 µg/mL) | CCC[C@@H]1C(=O)N(C)[C@@H](CC(C)C)C(=O)N[C@H](C(C)C)C(=O)N(C)[C@H](CC(C)C)C(=O)N[C@H](C)C(=O)N[C@@H](C)C(=O)N(C)[C@H](CC(C)C)C(=O)N(C)[C@H](CC(C)C)C(=O)N(C)[C@H](C(C)C)C(=O)N(C)[C@H]([C@@H]2OCC[C@H]2C)C(=O)N[C@H](CC)C(=O)N1C [Compound 2, [(2S)-2-(methylamino)-2-[(2R,3R)-3-methyltetrahydrofuran-2-yl]acetic acid]^1 [(R)-propyl-Sar]^3 cyclosporin A]
3 | 509 | 920 | > 10000 |  | CC[C@H]1NC(=O)[C@@H]([C@@H]2OCC[C@H]2C)N(C)C(=O)[C@@H](C(C)C)N(C)C(=O)[C@@H](CC(C)C)N(C)C(=O)[C@@H](CC(C)C)N(C)C(=O)[C@H](C)NC(=O)[C@@H](C)NC(=O)[C@@H](CC(C)C)N(C)C(=O)[C@@H](C(C)C)NC(=O)[C@H](CC(C)C)N(C)C(=O)CN(C)C1=O [Compound 4, [(2S)-2-(methylamino)-2-[(2R,3R)-3-methyltetrahydrofuran-2-yl]acetic acid]^1 cyclosporin A]
4 | 270 | 18 | > 10000 |  | CC(C)C[C@@H]1C(=O)N(C)[C@H](CC(C)C)C(=O)N(C)[C@H](C(C)C)C(=O)N(C)[C@H]([C@@H]2OCC[C@H]2C)C(=O)N[C@H]([C@@H](C)O)C(=O)N(C)[C@H](C)C(=O)N(C)[C@@H](CC(C)C)C(=O)N[C@H](C(C)C)C(=O)N(C)[C@H](CC(C)C)C(=O)N[C@H](C)C(=O)N[C@@H](C)C(=O)N1C [Compound 11, [(2S)-2-(methylamino)-2-[(2R,3R)-3-methyltetrahydrofuran-2-yl]acetic acid]^1 [(R)-methyl-Sar]^3 cyclosporin C] (cyclo(A[dNMeL][dNMeL][dNMeV][X1][d(aThr)][dNMeA][NMeL][dV][dNMeL][dA]))
5 | 49 | 12 | > 10000 |  | CC[C@H]1NC(=O)[C@@H]([C@@H]2OC(O)C[C@H]2C)N(C)C(=O)[C@@H](C(C)C)N(C)C(=O)[C@@H](CC(C)C)N(C)C(=O)[C@@H](CC(C)C)N(C)C(=O)[C@H](C)NC(=O)[C@@H](C)NC(=O)[C@@H](CC(C)C)N(C)C(=O)[C@@H](C(C)C)NC(=O)[C@H](CC(C)C)N(C)C(=O)[C@@H](C)N(C)C1=O (stereo partly drawn) [Compound 12, [(2R)-2-[(2R,3R)-5-hydroxy-3-methyl-tetrahydrofuran-2-yl]-2-(methylamino)acetic acid]^1[(R)-methyl-Sar]^3 cyclosporin A]
6 | 414 | 840 | > 10000 |  | CC(C)C[C@@H]1C(=O)N(C)[C@H](CC(C)C)C(=O)N(C)[C@H](C(C)C)C(=O)N(C)[C@H]([C@@H]2OC(O)C[C@H]2C)C(=O)N[C@H](C(C)C)C(=O)N(C)CC(=O)N(C)[C@@H](CC(C)C)C(=O)N[C@H](C(C)C)C(=O)N(C)[C@H](CC(C)C)C(=O)N[C@H](C)C(=O)N[C@@H](C)C(=O)N1C (stereo partly drawn) [Compound 13, [(2S)-2-[(2R,3R)-5-Hydroxy-3-methyl-tetrahydrofuran-2-yl]-2-(methylamino)acetic acid]^1 cyclosporin D]
7 | 38 | 46 | 5290 |  | CC[C@H]1NC(=O)[C@@H]([C@@H]2OCCC[C@H]2C)N(C)C(=O)[C@@H](C(C)C)N(C)C(=O)[C@@H](CC(C)C)N(C)C(=O)[C@@H](CC(C)C)N(C)C(=O)[C@H](C)NC(=O)[C@@H](C)NC(=O)[C@@H](CC(C)C)N(C)C(=O)[C@@H](C(C)C)NC(=O)[C@H](CC(C)C)N(C)C(=O)[C@@H](C)N(C)C1=O [Compound 15, [(2S)-2-(methylamino)-2-[(2R,3R)-3-methyltetrahydropyran-2-yl]acetic acid]^1 [(R)-methyl-Sar]^3 cyclosporin A]
8 | 386 | 560 | 6670 |  | CC[C@H]1NC(=O)[C@@H]([C@@H]2OCCCC[C@H]2C)N(C)C(=O)[C@@H](C(C)C)N(C)C(=O)[C@@H](CC(C)C)N(C)C(=O)[C@@H](CC(C)C)N(C)C(=O)[C@H](C)NC(=O)[C@@H](C)NC(=O)[C@@H](CC(C)C)N(C)C(=O)[C@@H](C(C)C)NC(=O)[C@H](CC(C)C)N(C)C(=O)CN(C)C1=O [Compound 16, [(2S)-2-(methylamino)-2-[(2R,3R)-3-methyloxepan-2-yl]acetic acid]^1 cyclosporin A]
9 | 105 | 85 | 7740 |  | CC[C@H]1NC(=O)[C@@H]([C@@H]2OCCCC[C@H]2C)N(C)C(=O)[C@@H](C(C)C)N(C)C(=O)[C@@H](CC(C)C)N(C)C(=O)[C@@H](CC(C)C)N(C)C(=O)[C@H](C)NC(=O)[C@@H](C)NC(=O)[C@@H](CC(C)C)N(C)C(=O)[C@@H](C(C)C)NC(=O)[C@H](CC(C)C)N(C)C(=O)[C@@H](C)N(C)C1=O [Compound 17, [(2S)-2-(methylamino)-2-[(2R,3R)-3-methyloxepan-2-yl]acetic acid]^1 [(R)-methyl-Sar]^3 cyclosporin A]
10 | 754 | 280 | > 10000 |  | CC[C@H]1NC(=O)[C@@H]([C@@H]2OCN(C)C[C@H]2C)N(C)C(=O)[C@@H](C(C)C)N(C)C(=O)[C@@H](CC(C)C)N(C)C(=O)[C@@H](CC(C)C)N(C)C(=O)[C@H](C)NC(=O)[C@@H](C)NC(=O)[C@@H](CC(C)C)N(C)C(=O)[C@@H](C(C)C)NC(=O)[C@H](CC(C)C)N(C)C(=O)CN(C)C1=O [Compound 23, [(2R)-2-[(5R,6R)-3,5-dimethyl-1,3-oxazinan-6-yl]-2-(methylamino)acetic acid]^1 cyclosporin A]
11 | 304 | 42 | 8160 |  | [(2R)-2-[(5R,6R)-3,5-dimethyl-2-oxo-1,3-oxazinan-6-yl]-2-(methylamino)acetic acid]^1 cyclosporin A [Compound 21]
